Earlier results as cited in patent US7776366B2, “Method and nutraceutical composition for mammals” (MD's Choice, Inc., priority 2002, dated 2010).

Settings: within 30 minutes, in at least 3 species, via glucose transporter

efficiency of active absorption from the digestive tract: over 90%
Compound: N[C@H]1C(O)O[C@H](CO)[C@@H](O)[C@@H]1O.O=S(=O)(O)O (stereo partly shown) [Glucosamine sulphate]
